Tested on: nitrification
Assay: Example 5: soil incubation in bottles with ammonium sulfate, DMPSA, DCD or mixtures, 5 to 15° C., 0 up to 56 days; recovery NH4 (RE/RC), net recovery NH4 (NE/NC), inhibition of NO3 formation (IE/IC, Böhland; Colby)
Method: 100 g soil is filled into 500 ml plastic bottles (e.g. soil sampled from the field) and is moistened to 50% water holding capacity. The soil is incubated at 20° C. for two weeks to activate the microbial biomass. 1 ml test solution, containing the compositions and mixtures of the invention in the appropriate concentration, or DMSO and 5 to 10 mg nitrogen in the form of ammoniumsulfate-N is added to the soil and everything mixed well. Bottles are capped but loosely to allow air exchange. The bottles are then incubated at 5 to 15° C. for 0 up to 56 days.
For analysis, 300 ml of a 1% K2SO4-solution is added to the bottle containing the soil and shaken for 2 hrs in a horizontal shaker at 150 rpm. Then the whole solution is filtered through a Macherey-Nagel Filter MN 807′/. Ammonium and nitrate content is then analyzed in the filtrate in an autoanalyzer at 550 nm (Merck, AA11).
The Böhland equation is described in Böhland, H., et al. (1973) “Mittel zur Hemmung bzw. Regelung der Nitrifikation von Ammoniumstickstoff in Kulturböden”. DDR-Wirtschaftspatent (Economic patent of the German Democratic Republic) C 05c 169 727. Cited by: Peschke, H. (1985) “Zur Bewertung der inhibierenden Wirkung von Nitrifiziden im Boden”, Zbl. Mikrobiol. 140, pp. 583-588.

## N#CN=C(N)N [DCD, dicyandiamide]
IT5° C., DAT10, % a.i.: DMPSA 0.5, DCD 1, DMPSA + DCD 0.5 + 1 (1:2)
  IE inhibition of NO3 formation: 10
IT5° C., DAT10, % a.i.: DMPSA 0.5, DCD 3, DMPSA + DCD 0.5 + 3 (1:6)
  IE inhibition of NO3 formation: 43
IT5° C., DAT20, % a.i.: DMPSA 0.5, DCD 1, DMPSA + DCD 0.5 + 1 (1:2)
  IE inhibition of NO3 formation: −5
IT5° C., DAT20, % a.i.: DMPSA 0.5, DCD 3, DMPSA + DCD 0.5 + 3 (1:6)
  IE inhibition of NO3 formation: 32
IT5° C., DAT28, % a.i. DMPSA 0.25, DCD 1
  IE (inhibition of NO3 formation, Böhland): 65
IT5° C., DAT28, % a.i. DMPSA 0.25, DCD 3
  IE (inhibition of NO3 formation, Böhland): 73
IT5° C., DAT28, % a.i. DMPSA 0.30, DCD 0.05
  IE (inhibition of NO3 formation, Böhland): 1
IT5° C., DAT28, % a.i. DMPSA 0.50, DCD 0.08
  IE (inhibition of NO3 formation, Böhland): 12
IT5° C., DAT28, % a.i.: DMPSA 0.50, DCD 0.0125, DMPSA + DCD 0.50 + 0.0125 (40:1)
  IE inhibition of NO3 formation: −7
IT5° C., DAT28, % a.i.: DMPSA 0.50, DCD 0.0143, DMPSA + DCD 0.50 + 0.0143 (35:1)
  IE inhibition of NO3 formation: −2
IT5° C., DAT28, % a.i.: DMPSA 0.50, DCD 0.0167, DMPSA + DCD 0.50 + 0.0167 (30:1)
  IE inhibition of NO3 formation: 0
IT5° C., DAT30, % a.i.: DMPSA 0.5, DCD 1, DMPSA + DCD 0.5 + 1 (1:2)
  IE inhibition of NO3 formation: 70
IT5° C., DAT30, % a.i.: DMPSA 0.5, DCD 3, DMPSA + DCD 0.5 + 3 (1:6)
  IE inhibition of NO3 formation: 113
IT5° C., DAT42, % a.i. DMPSA 0.25, DCD 1
  IE (inhibition of NO3 formation, Böhland): 63
IT5° C., DAT42, % a.i. DMPSA 0.25, DCD 3
  IE (inhibition of NO3 formation, Böhland): 82
IT5° C., DAT42, % a.i. DMPSA 0.30, DCD 0.05
  IE (inhibition of NO3 formation, Böhland): 7
IT5° C., DAT42, % a.i. DMPSA 0.50, DCD 0.08
  IE (inhibition of NO3 formation, Böhland): 18
IT5° C., DAT56, % a.i. DMPSA 0.25, DCD 1
  IE (inhibition of NO3 formation, Böhland): 57
IT5° C., DAT56, % a.i. DMPSA 0.25, DCD 3
  IE (inhibition of NO3 formation, Böhland): 74
IT5° C., DAT56, % a.i. DMPSA 0.30, DCD 0.05
  IE (inhibition of NO3 formation, Böhland): 13
IT5° C., DAT56, % a.i. DMPSA 0.50, DCD 0.08
  IE (inhibition of NO3 formation, Böhland): −1
IT10° C., DAT10, % a.i.: DMPSA 0.5, DCD 1, DMPSA + DCD 0.5 + 1 (1:2)
  IE inhibition of NO3 formation: 18
IT10° C., DAT10, % a.i.: DMPSA 0.5, DCD 3, DMPSA + DCD 0.5 + 3 (1:6)
  IE inhibition of NO3 formation: 59
IT10° C., DAT20, % a.i.: DMPSA 0.5, DCD 1, DMPSA + DCD 0.5 + 1 (1:2)
  IE inhibition of NO3 formation: 15
IT10° C., DAT20, % a.i.: DMPSA 0.5, DCD 3, DMPSA + DCD 0.5 + 3 (1:6)
  IE inhibition of NO3 formation: 24
IT10° C., DAT28, % a.i. DMPSA 0.25, DCD 1
  IE (inhibition of NO3 formation, Böhland): 47
IT10° C., DAT28, % a.i. DMPSA 0.25, DCD 3
  IE (inhibition of NO3 formation, Böhland): 64
IT10° C., DAT28, % a.i. DMPSA 0.30, DCD 0.05
  IE (inhibition of NO3 formation, Böhland): 4
IT10° C., DAT28, % a.i. DMPSA 0.50, DCD 0.08
  IE (inhibition of NO3 formation, Böhland): 2
IT10° C., DAT28, % a.i.: DMPSA 0.50, DCD 0.0125, DMPSA + DCD 0.50 + 0.0125 (40:1)
  IE inhibition of NO3 formation: 1
IT10° C., DAT28, % a.i.: DMPSA 0.50, DCD 0.0143, DMPSA + DCD 0.50 + 0.0143 (35:1)
  IE inhibition of NO3 formation: −3
IT10° C., DAT28, % a.i.: DMPSA 0.50, DCD 0.0167, DMPSA + DCD 0.50 + 0.0167 (30:1)
  IE inhibition of NO3 formation: −1
IT10° C., DAT30, % a.i.: DMPSA 0.5, DCD 1, DMPSA + DCD 0.5 + 1 (1:2)
  IE inhibition of NO3 formation: 47
IT10° C., DAT30, % a.i.: DMPSA 0.5, DCD 3, DMPSA + DCD 0.5 + 3 (1:6)
  IE inhibition of NO3 formation: 55
IT10° C., DAT42, % a.i. DMPSA 0.25, DCD 1
  IE (inhibition of NO3 formation, Böhland): 51
IT10° C., DAT42, % a.i. DMPSA 0.25, DCD 3
  IE (inhibition of NO3 formation, Böhland): 64
IT10° C., DAT42, % a.i. DMPSA 0.30, DCD 0.05
  IE (inhibition of NO3 formation, Böhland): −1
IT10° C., DAT42, % a.i. DMPSA 0.50, DCD 0.08
  IE (inhibition of NO3 formation, Böhland): −1
IT10° C., DAT56, % a.i. DMPSA 0.25, DCD 1
  IE (inhibition of NO3 formation, Böhland): 19
IT10° C., DAT56, % a.i. DMPSA 0.25, DCD 3
  IE (inhibition of NO3 formation, Böhland): 29
IT10° C., DAT56, % a.i. DMPSA 0.30, DCD 0.05
  IE (inhibition of NO3 formation, Böhland): −3
IT10° C., DAT56, % a.i. DMPSA 0.50, DCD 0.08
  IE (inhibition of NO3 formation, Böhland): 0
IT15° C., DAT10, % a.i.: DMPSA 0.5, DCD 1, DMPSA + DCD 0.5 + 1 (1:2)
  IE inhibition of NO3 formation: 34
IT15° C., DAT10, % a.i.: DMPSA 0.5, DCD 3, DMPSA + DCD 0.5 + 3 (1:6)
  IE inhibition of NO3 formation: 55
IT15° C., DAT20, % a.i.: DMPSA 0.5, DCD 1, DMPSA + DCD 0.5 + 1 (1:2)
  IE inhibition of NO3 formation: 47
IT15° C., DAT20, % a.i.: DMPSA 0.5, DCD 3, DMPSA + DCD 0.5 + 3 (1:6)
  IE inhibition of NO3 formation: 64
IT15° C., DAT28, % a.i. DMPSA 0.25, DCD 1
  IE (inhibition of NO3 formation, Böhland): 27
IT15° C., DAT28, % a.i. DMPSA 0.25, DCD 3
  IE (inhibition of NO3 formation, Böhland): 46
IT15° C., DAT28, % a.i.: DMPSA 0.30, DCD 0.05, DMPSA + DCD 0.30 + 0.05 (6:1)
  IE inhibition of NO3 formation: 5
IT15° C., DAT28, % a.i.: DMPSA 0.50, DCD 0.0125, DMPSA + DCD 0.50 + 0.0125 (40:1)
  IE inhibition of NO3 formation: 2
IT15° C., DAT28, % a.i.: DMPSA 0.50, DCD 0.0143, DMPSA + DCD 0.50 + 0.0143 (35:1)
  IE inhibition of NO3 formation: 1
IT15° C., DAT28, % a.i.: DMPSA 0.50, DCD 0.0167, DMPSA + DCD 0.50 + 0.0167 (30:1)
  IE inhibition of NO3 formation: 1
IT15° C., DAT28, % a.i.: DMPSA 0.50, DCD 0.08, DMPSA + DCD 0.50 + 0.08 (6.25:1)
  IE inhibition of NO3 formation: 2
IT15° C., DAT30, % a.i.: DMPSA 0.5, DCD 1, DMPSA + DCD 0.5 + 1 (1:2)
  IE inhibition of NO3 formation: 42
IT15° C., DAT30, % a.i.: DMPSA 0.5, DCD 3, DMPSA + DCD 0.5 + 3 (1:6)
  IE inhibition of NO3 formation: 59
IT15° C., DAT42, % a.i. DMPSA 0.25, DCD 1
  IE (inhibition of NO3 formation, Böhland): 12
IT15° C., DAT42, % a.i. DMPSA 0.25, DCD 3
  IE (inhibition of NO3 formation, Böhland): 21
IT15° C., DAT42, % a.i.: DMPSA 0.30, DCD 0.05, DMPSA + DCD 0.30 + 0.05 (6:1)
  IE inhibition of NO3 formation: 2
IT15° C., DAT42, % a.i.: DMPSA 0.50, DCD 0.08, DMPSA + DCD 0.50 + 0.08 (6.25:1)
  IE inhibition of NO3 formation: 3
IT15° C., DAT56, % a.i. DMPSA 0.25, DCD 1
  IE (inhibition of NO3 formation, Böhland): 1
IT15° C., DAT56, % a.i. DMPSA 0.25, DCD 3
  IE (inhibition of NO3 formation, Böhland): 3
IT15° C., DAT56, % a.i.: DMPSA 0.30, DCD 0.05, DMPSA + DCD 0.30 + 0.05 (6:1)
  IE inhibition of NO3 formation: 16
IT15° C., DAT56, % a.i.: DMPSA 0.50, DCD 0.08, DMPSA + DCD 0.50 + 0.08 (6.25:1)
  IE inhibition of NO3 formation: 13

From US20210371351A1, “MIXTURES COMPRISING AT LEAST TWO DIFFERENT NITRIFICATION INHIBITORS SELECTED FROM 2-(3,4-DIMETHYL-1H-PYRAZOL-1-YL)SUCCINIC ACID (DMPSA), 3,4-DIMETHYL PYRAZOLIUM GLYCOLATE (DMPG) AND OTHER COMPOUNDS” (BASF SE, priority 2017, published 2021)
